In the RepoRT retention time repository (doi:10.1021/acs.analchem.1c00972):

Test: RP, Waters ACQUITY UPLC BEH C18, 100 × 1 mm, 1.7 µm, 50 °C, 0.3 mL/min, estimated dead time 0.17 min; A: water + 0.1% formic acid + 20 mM ammonium formate; B: methanol + 0.1% formic acid + 20 mM ammonium formate; gradient (min/%B) 0/0 15/100 21/100 22/0 30/0
Conditions: stereoisomer not certain

## O=C1C(Cl)C(CCl)CN1c1cccc(C(F)(F)F)c1 (stereo not given) [Flurochloridone]
  LC retention time: 14.6 min

## COc1ccc(-c2coc3cc(O)ccc3c2=O)cc1 [Formononetin]
  LC retention time: 13.2 min

## O=C(O)CC1(C(=O)O)CCCCC1 [Gabapentin Related Compound E]
  LC retention time: 9.9 min

## C=CC12CN(C)C3C4COC(CC41)C1(C(=O)Nc4ccccc41)C32 (stereo not given) [Gelsemine]
  LC retention time: 7.38 min

## CCCCCC(=O)OC1(C(C)=O)CCC2C3CCC4=CC(=O)CCC4C3CCC21C (stereo not given) [Gestonorone capronate]
  LC retention time: 16.7 min

## CCCCCCCCCCCCCCCCCC(=O)OCC(O)CO (stereo not given) [Glyceryl monostearate]
  LC retention time: 19.2 min

## CCCCCCCCCCCCCCCC(=O)OCC(O)CO (stereo not given) [Glyceryl-1-monopalmitate]
  LC retention time: 18.6 min

## C=CC1CNC(=S)O1 (stereo not given) [Goitrin]
  LC retention time: 5 min

## COP(=O)(OC)OC1=C(Cl)C2C=CCC12 (stereo not given) [Heptenophos]
  LC retention time: 13.3 min

## CCCCC(O)(Cn1cncn1)c1ccc(Cl)cc1Cl (stereo not given) [Hexaconazole]
  LC retention time: 15.9 min

## O=C(O)CNC(=O)c1ccccc1 [Hippuric_acid]
  LC retention time: 7.2 min

## NC(Cc1cnc[nH]1)C(=O)N1CCCC1C(=O)O (stereo not given) [His-Pro]
  LC retention time: 2.6 min

## CN(C)CCc1ccc(O)cc1 [Hordenine]
  LC retention time: 3.04 min

## CC(=O)OCC(=O)C1(O)CCC2C3CCC4=CC(=O)CCC4(C)C3C(O)CC21C (stereo not given) [Hydrocortisonacetate]
  LC retention time: 13.4 min

## CC(=O)C1(C)CC2=C(CCCC2(C)C)CC1C (stereo not given) [ISO E Super]
  LC retention time: 17.7 min

## O=NNC1=NCCN1Cc1ccc(Cl)nc1 [Imidacloprid-nitrosoimine]
  LC retention time: 7.84 min

## O=[N+]([O-])Nc1nccn1Cc1ccc(Cl)nc1 [Imidacloprid-olefin]
  LC retention time: 7.92 min

## C1=Cc2ccccc2Nc2ccccc21 [Iminostilbene]
  LC retention time: 14.5 min

## c1ccc2[nH]ncc2c1 [Indazole]
  LC retention time: 4.3 min

## O=C(O)c1cc2ccccc2[nH]1 [Indole-2-carboxylic acid/Indole-3-carboxylic acid]
  LC retention time: 7.8 min

## COP(N)(=S)Oc1ccccc1C(=O)OC(C)C (stereo not given) [Isocarbophos]
  LC retention time: 13.2 min

## CCOP(=S)(NC(C)C)Oc1ccccc1C(=O)OC(C)C (stereo not given) [Isofenphos (-ethyl)]
  LC retention time: 16 min

## COP(=S)(NC(C)C)Oc1ccccc1C(=O)OC(C)C (stereo not given) [Isofenphos-methyl]
  LC retention time: 15.5 min

## CC1(C)CC(N)CC(C)(CN)C1 (stereo not given) [Isophorone diamine]
  LC retention time: 2.02 min

## O=C(O)c1cccc(C(=O)O)c1 [Isophthalic acid]
  LC retention time: 8.71 min

## COc1c2ccoc2c(OC)c2oc(=O)ccc12 [Isopimpinellin]
  LC retention time: 12.2 min

## COC1CC(OC2C(C)OC(OC3C(C)=CCC4CC(CC5(CCC(C)C(C(C)C)O5)O4)OC(=O)C4C=C(C)C(O)C5OCC(=CC=CC3C)C45O)CC2OC)OC(C)C1O (stereo not given) [Ivermectin B1b]
  LC retention time: 5.5 min

## O=C(O)c1cc(=O)c2ccccc2[nH]1 [Kynurenic acid]
  LC retention time: 6.9 min

## O=C1CC[C@@H](C(=O)O)N1 [L-Pyroglutamic acid]
  LC retention time: 7.7 min

## N[C@@H](Cc1ccc(O)cc1)C(=O)O [L-Tyrosine]
  LC retention time: 6.5 min

## O=c1cc(-c2ccc(O)c(O)c2)oc2cc(OC3OC(CO)C(O)C(O)C3O)cc(O)c12 (stereo not given) [Luteolin 7-glucoside]
  LC retention time: 9.71 min

## CCOC(=O)CC(SP(=S)(OC)OC)C(=O)OCC (stereo not given) [Malathion]
  LC retention time: 14.3 min

## O=c1ccc(=O)[nH][nH]1 [Maleic acid hydazide]
  LC retention time: 16.4 min

## C#CCOc1ccc(CCNC(=O)C(OCC#C)c2ccc(Cl)cc2)cc1OC (stereo not given) [Mandipropamid]
  LC retention time: 14.3 min

## COc1ccc2[nH]cc(CCNC(C)=O)c2c1 [Melatonin]
  LC retention time: 9.71 min

## Cc1ccccc1C(=O)Nc1cccc(OC(C)C)c1 [Mepronil]
  LC retention time: 14.4 min

## COC(=O)c1ccc(CNS(C)(=O)=O)cc1S(=O)(=O)NC(=O)Nc1nc(OC)cc(OC)n1 [Mesosulfuron-methyl]
  LC retention time: 12.8 min

## Cc1cccc(C)c1N(Cn1cccn1)C(=O)C(=O)O [Metazachlor BH 479-4 (Metazachlor oxanilic acid (OA))]
  LC retention time: 9.29 min

## Cc1cccc(C)c1NC(=O)CCl [Metazachlor-N-dealkylation]
  LC retention time: 10.2 min

## Cc1cccc(C)c1N(Cn1cccn1)C(=O)CO [Metazachlor-OH-deschloro]
  LC retention time: 11.1 min

## COC(=O)C(C)=COP(=S)(OC)OC [Methacrifos]
  LC retention time: 12.1 min

## COc1nn(CSP(=S)(OC)OC)c(=O)s1 [Methidation]
  LC retention time: 13.2 min

## CNC(=O)Oc1cc(C)c(S(C)=O)c(C)c1 (stereo not given) [Methiocarb-sulfoxide]
  LC retention time: 9.18 min

## Cn1ncc(N)c(Cl)c1=O [Methyl-Desphenyl-Chloridazon]
  LC retention time: 5.18 min

## CCc1cccc(C)c1NC(=O)CCl [Metolachlor-N-dealkylation]
  LC retention time: 13.7 min

## CC(C)(C)c1n[nH]c(=O)n(N)c1=O [Metribuzin-diketo]
  LC retention time: 9.82 min

## CN(C)c1ccc(O)c2c1CC1CC3C(N(C)C)C(=O)C(C(N)=O)=C(O)C3(O)C(=O)C1=C2O (stereo not given) [Minocyclin]
  LC retention time: 8.3 min

## O=C(NCCN1CCOCC1)c1ccc(Cl)cc1 [Moclobemide]
  LC retention time: 8.18 min

## CCCC(C)(C)C(=O)Nc1ccc(Cl)cc1 [Monalide]
  LC retention time: 15 min

## CON(C)C(=O)Nc1ccc(Cl)cc1 [Monolinuron]
  LC retention time: 12.2 min

## CN(C)c1nc2c(ncn2C2OC(CO)C(O)C2O)c(=O)[nH]1 (stereo not given) [N2_N2-Dimethylguanosine]
  LC retention time: 6.3 min

## CC(O)C(NC(=O)Nc1ncnc2c1ncn2C1OC(CO)C(O)C1O)C(=O)O (stereo not given) [N6-Threonylcarbamoyladenosine]
  LC retention time: 7.6 min

## CN(C)c1ccccc1 [N,N-Dimethylaniline]
  LC retention time: 2.5 min

## CCNC(=O)c1cccc(C)c1 [N-Ethyl-3-methylbenzamide]
  LC retention time: 10.7 min

## CC=C(C)C(=O)NCC(=O)O [N-Tigloylglycine]
  LC retention time: 6.4 min

## CCOc1ccc2ccccc2c1C(=O)NC1C(=O)N2C1SC(C)(C)C2C(=O)O (stereo not given) [Nafcillin]
  LC retention time: 13.6 min

## CCN(CC)CCOC(=O)C(Cc1cccc2ccccc12)CC1CCCO1 (stereo not given) [Nafronyl]
  LC retention time: 16 min

## O=C1CCC2(O)C3Cc4ccc(O)c5c4C2(CCN3CC2CC2)C1O5 (stereo not given) [Naltrexon]
  LC retention time: 5.88 min

## CCCCC(CC)COC(=O)C=Cc1ccc(OC)cc1 (stereo not given) [Octyl-methoxycinnamate]
  LC retention time: 18.2 min

## CN(C)CCC=C1c2ccccc2COc2ccc(CC(=O)O)cc21 [Olopatadine]
  LC retention time: 11.5 min

## CCCCCCCCCCCC(CC1OC(=O)C1CCCCCC)OC(=O)C(CC(C)C)NC=O (stereo not given) [Orlistat]
  LC retention time: 19 min

## CCOC(=O)C1=CC(OC(CC)CC)C(NC(C)=O)C(N)C1 (stereo not given) [Oseltamivir]
  LC retention time: 11.5 min

## CNC(=O)ON=C(SC)C(=O)N(C)C [Oxamyl]
  LC retention time: 7.21 min

## CCOc1cc(Oc2ccc(C(F)(F)F)cc2Cl)ccc1[N+](=O)[O-] [Oxyfluorfen]
  LC retention time: 16.8 min

## CCC(C(N)=O)(C(N)=O)c1ccccc1 [PEMA]
  LC retention time: 7.76 min

## CCCCCCCCCCCCCCCC(=O)NCCO [Palmitoylethanolamide]
  LC retention time: 18.4 min

## Nc1nc2c(ncn2CCC(CO)CO)c(=O)[nH]1 [Penciclovir]
  LC retention time: 3.58 min

## Cc1cc([N+](=O)[O-])c(N)c([N+](=O)[O-])c1C [Pendimethalin-N-dealkylation]
  LC retention time: 14.6 min

## CCC=Nc1c([N+](=O)[O-])cc(C)c(C)c1[N+](=O)[O-] [Pendimethalin-desethyl]
  LC retention time: 8.48 min

## NC(Cc1ccccc1)C(=O)N1CCCC1C(=O)O (stereo not given) [Phe-Pro]
  LC retention time: 8.7 min

## c1ccc2c(c1)Nc1ccccc1S2 [Phenothiazine]
  LC retention time: 14.9 min

## CCOC(=O)C(SP(=S)(OC)OC)c1ccccc1 (stereo not given) [Phenthoate]
  LC retention time: 15.4 min

## O=C1NC(=O)C(c2ccccc2)(c2ccccc2)N1 [Phenytoin]
  LC retention time: 12 min

## N#Cc1ccccc1C#N [Phthalonitrile]
  LC retention time: 8.45 min

## Nc1ccc(F)cc1 [Picolinafen-Fluoroaniline]
  LC retention time: 2.59 min

## O=C(O)c1cccc(Oc2cccc(C(F)(F)F)c2)n1 [Picolinafen-OH-O-dealkylation]
  LC retention time: 14 min

## CCc1cc(C)cc(CC)c1-c1c(OC(=O)C(C)(C)C)n2n(c1=O)CCOCC2 [Pinoxaden]
  LC retention time: 10.5 min

## CCOC(=O)OC1(C(=O)COC(=O)CC)CCC2C3CCC4=CC(=O)C=CC4(C)C3C(O)CC21C (stereo not given) [Prednicarbate]
  LC retention time: 15.3 min

## CC12C=CC(=O)C=C1CCC1C2C(O)CC2(C)C1CCC2(O)C(=O)CO (stereo not given) [Prednisolone]
  LC retention time: 12.4 min

## CCCCCC1=CC(=O)C=C(OC)C1=O [Primin]
  LC retention time: 14.3 min

## CC12CC1(C)C(=O)N(c1cc(Cl)cc(Cl)c1)C2=O (stereo not given) [Procymidone]
  LC retention time: 14.6 min

## CSc1nc(NC(C)C)nc(NC(C)C)n1 [Prometryne]
  LC retention time: 14.2 min

## CC(C)=NOCCOC(=O)C(C)Oc1ccc(Oc2cnc3cc(Cl)ccc3n2)cc1 (stereo not given) [Propaquizafop]
  LC retention time: 16.8 min

## CC(C)Nc1nc(Cl)nc(NC(C)C)n1 [Propazin]
  LC retention time: 14 min

## CCNP(=S)(OC)OC(C)=CC(=O)OC(C)C (stereo not given) [Propetamphos]
  LC retention time: 14.6 min

## CC(C)OC(=O)Nc1ccccc1 [Propham]
  LC retention time: 12.7 min

## CC1=NNC(=O)N(N=Cc2cccnc2)C1 [Pymetrozine]
  LC retention time: 5.76 min

## CC1=C(C(=O)Nc2ccccc2)CCCO1 [Pyracarbolid]
  LC retention time: 11.7 min

## CCOC(=O)c1cn2nc(OP(=S)(OCC)OCC)cc2nc1C [Pyrazophos]
  LC retention time: 15.9 min

## CON=C(Cc1cccnc1)c1ccc(Cl)cc1Cl [Pyrifenox]
  LC retention time: 14.3 min
